Common to all, as to assay type: cell-based
For one test, the target named is human Flt-3 ligand (Homo sapiens, UniProt P49771). Put plainly: PT-18β proliferation assay (3H-thymidine), non-γc cytokine Flt-3 ligand. The conditions noted are these: 1 nM human Flt-3 ligand, 15 μM BNZ132-1.
Another test relates to human IL-9. Put plainly: NK92 cell proliferation assay (WST-1), IL-9. The note with it: 24 h. The protocol:
(§1) Human peripheral blood mononuclear cells were purified by the Ficoll-paque gradient centrifugation (GE-Healthcare) and stimulated by PHA (5 μg ml^−1, Sigma) for 48 h, then expanded with IL-2 (0.5 nM, Peprotech) for 48h, and then depleted of non-T cells by the Pan-T cell negative enrichment Ab cocktails (Miltenyi). The purified T cells were then fasted of IL-2 overnight prior to the proliferation assay by the tetrazolium dye method. Four hundred thousand cells (in 200 μl culture) were incubated with the cytokines and BNZ132-1 at the indicated concentrations for 24 h, and 20 μl WST1 reagent (Clontech) was added to each well. After 12 h incubation, OD450 was measured. The assay was performed in triplicate. […] NK 92 cells were cultured in human IL-2. Cells were washed to withdraw IL-2 for overnight and two hundred thousand cells (in 200 μl volume) were incubated with the indicated concentrations of the cytokine and BNZ132-1 for 24 h before 20 μl WST-1 reagent (Clontech) was added to each well to measure proliferative response. Absorbance at 450 nm was read at 6 h after the addition of the WST-1 dye. The assay was performed in triplicate. The assay was performed in triplicate and the figure represents a typical result out of 5 different HAM-TSP patients.

Test [1] relates to IL-15 signaling (STAT5, PI3kinase-Akt, MAP-kinase branches). As to the kind of experiment: Western blot of phosphorylation downstream of IL-15 in PT-18β cells. The conditions noted are these: 1 nM human IL-15, 0.5 μM BNZ132-1. How it is done: FIG. 9A-FIG. 9C present comprehensive inhibition by BN132-1 of signaling events caused by target γc-cytokines. […] Cells have been fasted of IL-3 for 12 h and then stimulated with 1 nM human IL-15 (Peprotech) in the presence or absence of 0.5 μM BNZ132-1 for 15 min before extraction of cellular proteins. Phosphorylation of the relevant molecules were detected using antibodies against each phosphor-proteins (Cell Signaling), followed by the ECL technique (Thermo Scientific). Lanes: 1. no stimulation, 2. IL-15 (1 nM), 3. IL-15 (1 nM)+BNZ132-1 (0.5 μM).
Cellular proliferation often represents a combination of several independent signaling pathways, and inhibiting one signaling branch […] the proliferation. […] FIG. 9A-FIG. 9C show comprehensive inhibition of the signal transduction pathways downstream of IL-15/IL-15 receptor system in PT-18 cells by BNZ 132-1. PT-18β cells have been withdrawn of IL-15 for overnight to induce into proliferative quiescence (no-stimulation). To restimulate the cells, 1 nM of IL-15 was added in the presence or absence of BNZ132-1 (0.5 μM). After […], cell lysates were collected and phosphorylation of key mediators of major signaling branches were determined by western blotting.

Another test concerns mouse IL-9. As to the kind of experiment: PT-18 proliferation assay (WST-1), IL-9. The conditions noted are these: murine PT-18 cells, 1 nM mouse IL-9, BNZ132-1 50 nM, 500 nM, 5 μM. The protocol: FIG. 6A-FIG. 6E presents inhibitory spectrum of BNZ132-1 over γc- and non-γc-cytokines. […] Neutralizing antibodies against each cytokine (R & D systems, 5 μg ml^−1) were included as controls. After 20 h, the cells were pulsed with WST-1 (Clontech) and OD450 of each well was measured after 6 h. A 19-mer scrambled peptide was used as a negative control at 5 μM. The experiments were conducted in triplicate (applies to all experiments in FIG. 6A-FIG. 6E). The result represents one of at least three independent experiments (applies to all experiments in FIG. 6A-FIG. 6E). […] In PT-18 proliferation assay, PT-18β or PT-18h21Rα cells were withdrawn of mouse IL-3 for 12 h before the experiment. Cells were then incubated with 1 nM of mouse IL-4, mouse IL-9, or mouse IL-21 in the presence or absence of the indicated doses (μM) of BNZ132-1. Neutralizing antibodies to each cytokine (5 μg ml^−1, except for anti-mouse IL-21 polyclonal antibody which was used at 15 μg ml−1) and a scrambled control peptide (5 μM) were included as negative controls. WST-1 assay was conducted as described above. […] In PT-18 h21Rα survival assay, PT-18h21Rα cells are described in the text. […] Both parental and hIL-21Rα positive PT-18 cells were washed and incubated without IL-3 for 12 h before the assay. […] The Y-axis represents the cpm (count per minute) values measured by a β-counter. […]
In general terms: Tetrazolium dyes change colour on reduction, which living cells bring about.

The subject of the next test is human IL-15. Put plainly: NK92 cell proliferation assay (WST-1), IL-15. The note with it: 24 h. How it is done:
as §1
FIG. 8B, and FIG. 8C show the results of NK92 cell proliferation assay. NK92 cells responded to IL-2 and IL-15. […]

“Also recorded” adds a separate entry of the source. No end group written: not given here.

Sequence of human Flt-3 ligand (P49771 27-235): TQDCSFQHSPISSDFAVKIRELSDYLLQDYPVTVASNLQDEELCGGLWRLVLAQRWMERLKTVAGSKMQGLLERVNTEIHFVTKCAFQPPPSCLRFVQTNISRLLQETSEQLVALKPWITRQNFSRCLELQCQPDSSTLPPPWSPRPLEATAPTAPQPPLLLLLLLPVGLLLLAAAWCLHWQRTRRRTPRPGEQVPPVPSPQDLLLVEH

On to IKEFLQRFIHIVQSIINTS [BNZ132-1], for which the “inhibition of Flt3-L-induced proliferation of PT-18β cells” value against human Flt-3 ligand is on record as “did not inhibit; also recorded: no inhibition; also recorded: no inhibition of non-γc cytokines”. Besides, the “inhibition of IL-9-induced proliferation of NK92 cells” value with human IL-9 is reported as “dose-dependent inhibition”. In addition, the “inhibition of IL-15 signaling (phosphorylation of key signaling molecules)” value in test [1] is “comprehensively inhibited; also recorded: near-complete inhibition”. The “inhibition of IL-9-induced proliferation of PT-18 cells” value in the test on mouse IL-9 was “partially inhibited; also recorded: inhibition of IL-9”. Moreover, the “inhibition of IL-15-induced proliferation of NK92 cells” value in the test with human IL-15 is “dose-dependent manner; also recorded: dose-dependent inhibition”.

Source of the values: US10854312B2, “Selective peptide antagonists” (BIONIZ, LLC, priority 2013, dated 2020).
